US9695155B2, “Herbicidal substituted pyrimidinyloxy benzene compounds” (E. I. DU PONT DE NEMOURS AND COMPANY, priority 2013, dated 2017)

Assays:
soybean = assay: Test C postemergence; type: in vivo, Glycine max; settings: for Plant response rating, Soybean: scale 0 to 100 (0 no effect, 100 complete control)
Method in brief: (§1)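 Visual injury score versus untreated controls, 0 = no effect, 100 = complete control, taken 13 to 15 days after treatment in the greenhouse. Pre-emergence pots held loam/sand; post-emergence plants grew in sphagnum peat/vermiculite mix and were sprayed at the 1- to 4-leaf stage.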

barnyardgrass = assay: Test C postemergence; type: in vivo, Echinochloa crus-galli
Method in brief: as §1

wheat, winter = assay: Test C preemergence; type: in vivo, Triticum aestivum; settings: for Wheat plant response rating: preemergence; for Plant response rating, Wheat: Preemergence, 31 g ai/ha, scale 0 to 100, 0 no effect, 100 complete control
Method in brief: as §1

yellow nutsedge = assay: Test C preemergence; type: in vivo, Cyperus esculentus; settings: for Nutsedge, Yellow plant response rating: preemergence; for Plant response rating, Nutsedge, Yellow: Preemergence, 31 g ai/ha, scale 0 to 100, 0 no effect, 100 complete control
Method in brief: as §1

pigweed [1] = assay: Test C postemergence; type: in vivo, Amaranthus retroflexus; settings: for Plant response rating, Pigweed: scale 0 to 100 (0 no effect, 100 complete control)
Method in brief: as §1

kochia = assay: Test C postemergence; type: in vivo, Kochia scoparia
Method in brief: as §1

blackgrass = assay: Test C postemergence; type: in vivo, Alopecurus myosuroides
Method in brief: as §1

Italian ryegrass = assay: Test C postemergence; type: in vivo, Lolium multiflorum; settings: for Plant response rating, Ryegrass, Italian: scale 0 to 100 (0 no effect, 100 complete control)
Method in brief: as §1

morningglory = assay: Test A postemergence; type: in vivo, Ipomoea spp.
Method in brief: (§2)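 Greenhouse pot test, loam/sand soil. Formulation: non-phytotoxic solvent mix plus surfactant. Pre: directed spray onto soil after sowing. Post: plants at 1–2 leaf, 2–10 cm. Rated visually vs untreated controls at ~10 d, 0 (no effect) to 100 (complete control).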

Heteranthera limosa = assay: Test B flooded paddy test; type: in vivo; settings: Flood, 250 g ai/ha; 0 to 100 scale where 0 is no effect and 100 is complete control
Method in brief: (§3)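 2-leaf stage plants; pots flooded to 3 cm, compound added to paddy water, depth maintained. Greenhouse 13–15 d. Visual rating vs untreated controls, 0 (no effect) to 100 (complete control); dash = no result.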

pigweed [2] = assay: Test C preemergence; type: in vivo, Amaranthus retroflexus; settings: for Pigweed plant response rating: preemergence; for Plant response rating, Pigweed: Preemergence, 31 g ai/ha, scale 0 to 100, 0 no effect, 100 complete control
Method in brief: as §1

lambsquarters [3] = assay: Test C postemergence; type: in vivo, Chenopodium album; settings: for Plant response rating, Lambsquarters: scale 0 to 100 (0 no effect, 100 complete control)
Method in brief: as §1

rice = assay: Test B flooded paddy test; type: in vivo, Oryza sativa; settings: Flood, 250 g ai/ha; 0 to 100 scale where 0 is no effect and 100 is complete control
Method in brief: as §3

corn = assay: Test A preemergence; type: in vivo, Zea mays; settings: for Corn plant response rating: 500 g ai/ha, approx. 10 days
Method in brief: as §2

lambsquarters [4] = assay: Test C preemergence; type: in vivo, Chenopodium album; settings: for Lambsquarters plant response rating: preemergence; for Plant response rating, Lambsquarters: Preemergence, 31 g ai/ha, scale 0 to 100, 0 no effect, 100 complete control
Method in brief: as §1

[5] = 16 g ai/ha, postemergence, 0 is no effect, 100 is complete control
[6] = 125 g ai/ha, postemergence, visual rating
[7] = 125 g ai/ha, postemergence, visual rating, scale 0 to 100 (0 no effect, 100 complete control)
[8] = Postemergence, 31 g ai/ha, scale 0 to 100 (0 no effect, 100 complete control), 13 to 15 days
[9] = Postemergence, 62 g ai/ha, scale 0 to 100 (0 no effect, 100 complete control)
[10] = 16 g ai/ha, scale 0 to 100 (0 no effect, 100 complete control)
[11] = 62 g ai/ha, scale 0 (no effect) to 100 (complete control)
[12] = 125 g ai/ha, scale 0 (no effect) to 100 (complete control)
[13] = 1000 g ai/ha, 0 to 100 scale, 0 no effect, 100 complete control
[14] = Postemergence, 31 g ai/ha, 13 to 15 days
[15] = 16 g ai/ha, postemergence, visual rating, scale 0 to 100 (0 no effect, 100 complete control), 13 to 15 days
[16] = 125 g ai/ha, 0 to 100 scale where 0 is no effect and 100 is complete control
[17] = 500 g ai/ha, 0 to 100 scale where 0 is no effect and 100 is complete control
[18] = 0 to 100 scale, 0 no effect, 100 complete control
[19] = 250 g ai/ha, scale 0 (no effect) to 100 (complete control)

Compound: N#Cc1cn(-c2c(Br)cccc2Oc2ncc(Cl)cn2)nn1 [Compound 116]
- Plant response rating (0 to 100), Soybean (soybean; [5]): 15
- Plant response rating, Soybean (soybean; [6]): 95
- Plant response rating, Soybean (soybean; Postemergence, 62 g ai/ha): 60
- Plant response rating (0 to 100), Barnyardgrass (barnyardgrass; [5]): 0
- Plant response rating, Barnyardgrass (barnyardgrass; [7]): 20
- Plant response rating, Barnyardgrass (barnyardgrass; [8]): 5
- Plant response rating, Barnyardgrass (barnyardgrass; [9]): 5
- Wheat plant response rating (wheat, winter; [10]): 0
- Wheat plant response rating (wheat, winter; [11]): 0
- Wheat plant response rating (wheat, winter; [12]): 5
- Plant response rating, Wheat (wheat, winter): 0
- Nutsedge, Yellow plant response rating (yellow nutsedge; [10]): 0
- Nutsedge, Yellow plant response rating (yellow nutsedge; [11]): 10
- Nutsedge, Yellow plant response rating (yellow nutsedge; [12]): 40
- Plant response rating, Nutsedge, Yellow (yellow nutsedge): 5
- Plant response rating (0 to 100), Pigweed (pigweed [1]; [5]): 80
- Plant response rating, Pigweed (pigweed [1]; [6]): 95
- Plant response rating, Pigweed (pigweed [1]; Postemergence, 62 g ai/ha): 90
- Plant response rating (0 to 100), Kochia (kochia; [5]): 70
- Plant response rating, Kochia (kochia; [7]): 95
- Plant response rating, Kochia (kochia; [9]): 90
- Plant response rating (0 to 100), Blackgrass (blackgrass; [5]): 0
- Plant response rating, Blackgrass (blackgrass; [7]): 25
- Plant response rating, Blackgrass (blackgrass; [8]): 5
- Plant response rating, Blackgrass (blackgrass; [9]): 10
- Plant response rating (0 to 100), Ryegrass, Italian (Italian ryegrass; [5]): 5
- Plant response rating, Ryegrass, Italian (Italian ryegrass; [6]): 5
- Plant response rating, Ryegrass, Italian (Italian ryegrass; Postemergence, 62 g ai/ha): 5
- Plant response rating, Morningglory (morningglory; [13]): 100
- Plant response rating, Ducksalad (Heteranthera limosa): 60
- Pigweed plant response rating (pigweed [2]; [10]): 75
- Pigweed plant response rating (pigweed [2]; [11]): 100
- Pigweed plant response rating (pigweed [2]; [12]): 100
- Plant response rating, Pigweed (pigweed [2]): 100
- Plant response rating (0 to 100), Lambsquarters (lambsquarters [3]; [5]): 5
- Plant response rating, Lambsquarters (lambsquarters [3]; [6]): 80
- Plant response rating, Lambsquarters (lambsquarters [3]; Postemergence, 62 g ai/ha): 50
- Plant response rating, Rice (rice): 0
- Plant response rating, Corn (corn; [13]): 30
- Lambsquarters plant response rating (lambsquarters [4]; [10]): 10
- Lambsquarters plant response rating (lambsquarters [4]; [11]): 85
- Lambsquarters plant response rating (lambsquarters [4]; [12]): 100
- Plant response rating, Lambsquarters (lambsquarters [4]): 95

Compound: CCOc1cnn(-c2c(C#N)cccc2Oc2ncc(Cl)cn2)c1 [Compound 92]
- Plant response rating (0 to 100), Soybean (soybean; 125 g ai/ha, postemergence): 95
- Plant response rating, Soybean (soybean; [14]): 70
- Plant response rating, Soybean (soybean; Postemergence, 62 g ai/ha): 90
- Barnyardgrass plant response rating (barnyardgrass; [15]): 5
- Plant response rating (0 to 100), Barnyardgrass (barnyardgrass; 125 g ai/ha, postemergence): 10
- Plant response rating, Barnyardgrass (barnyardgrass; [8]): 5
- Plant response rating, Barnyardgrass (barnyardgrass; [9]): 5
- Wheat plant response rating (wheat, winter; [10]): 0
- Wheat plant response rating (wheat, winter; [11]): 30
- Wheat plant response rating (wheat, winter; [12]): 80
- Plant response rating, Wheat (wheat, winter): 0
- Nutsedge, Yellow plant response rating (yellow nutsedge; [10]): 5
- Nutsedge, Yellow plant response rating (yellow nutsedge; [11]): 50
- Nutsedge, Yellow plant response rating (yellow nutsedge; [12]): 75
- Plant response rating, Nutsedge, Yellow (yellow nutsedge): 5
- Plant response rating (0 to 100), Pigweed (pigweed [1]; 125 g ai/ha, postemergence): 75
- Plant response rating, Pigweed (pigweed [1]; [14]): 60
- Plant response rating, Pigweed (pigweed [1]; Postemergence, 62 g ai/ha): 55
- Kochia plant response rating (kochia; [15]): 40
- Plant response rating (0 to 100), Kochia (kochia; 125 g ai/ha, postemergence): 85
- Plant response rating, Kochia (kochia; [8]): 60
- Plant response rating, Kochia (kochia; [9]): 80
- Blackgrass plant response rating (blackgrass; [15]): 0
- Plant response rating (0 to 100), Blackgrass (blackgrass; 125 g ai/ha, postemergence): 35
- Plant response rating, Blackgrass (blackgrass; [8]): 0
- Plant response rating, Blackgrass (blackgrass; [9]): 10
- Plant response rating (0 to 100), Ryegrass, Italian (Italian ryegrass; 125 g ai/ha, postemergence): 35
- Plant response rating, Ryegrass, Italian (Italian ryegrass; [14]): 5
- Plant response rating, Ryegrass, Italian (Italian ryegrass; Postemergence, 62 g ai/ha): 5
- Plant response rating, Morningglory (morningglory; [16]): 100
- Plant response rating, Morningglory (morningglory; [17]): 100
- Plant response rating, Ducksalad (Heteranthera limosa): 95
- Pigweed plant response rating (pigweed [2]; [10]): 90
- Pigweed plant response rating (pigweed [2]; [11]): 100
- Pigweed plant response rating (pigweed [2]; [12]): 100
- Plant response rating, Pigweed (pigweed [2]): 85
- Plant response rating (0 to 100), Lambsquarters (lambsquarters [3]; 125 g ai/ha, postemergence): 75
- Plant response rating, Lambsquarters (lambsquarters [3]; [14]): 35
- Plant response rating, Lambsquarters (lambsquarters [3]; Postemergence, 62 g ai/ha): 40
- Plant response rating, Rice (rice): 20
- Plant response rating, Corn (corn; [16]): 10
- Corn plant response rating (corn; [18]): 40
- Lambsquarters plant response rating (lambsquarters [4]; [10]): 65
- Lambsquarters plant response rating (lambsquarters [4]; [11]): 100
- Lambsquarters plant response rating (lambsquarters [4]; [12]): 98
- Plant response rating, Lambsquarters (lambsquarters [4]): 98

Compound: N#Cc1cccc(Oc2ncc(F)cn2)c1-n1cc(Cl)cn1 [Compound 73]
- Plant response rating (0 to 100), Soybean (soybean; 125 g ai/ha, postemergence): 80
- Plant response rating (0 to 100), Soybean (soybean; 250 g ai/ha, postemergence): 90
- Plant response rating, Soybean (soybean; [14]): 40
- Plant response rating, Soybean (soybean; Postemergence, 62 g ai/ha): 70
- Plant response rating (0 to 100), Barnyardgrass (barnyardgrass; 125 g ai/ha, postemergence): 10
- Plant response rating (0 to 100), Barnyardgrass (barnyardgrass; 250 g ai/ha, postemergence): 35
- Plant response rating, Barnyardgrass (barnyardgrass; [8]): 0
- Plant response rating, Barnyardgrass (barnyardgrass; [9]): 0
- Wheat plant response rating (wheat, winter; [11]): 0
- Wheat plant response rating (wheat, winter; [12]): 5
- Wheat plant response rating (wheat, winter; [19]): 85
- Plant response rating, Wheat (wheat, winter): 0
- Nutsedge, Yellow plant response rating (yellow nutsedge; [11]): 0
- Nutsedge, Yellow plant response rating (yellow nutsedge; [12]): 5
- Nutsedge, Yellow plant response rating (yellow nutsedge; [19]): 15
- Plant response rating, Nutsedge, Yellow (yellow nutsedge): 0
- Plant response rating (0 to 100), Pigweed (pigweed [1]; 125 g ai/ha, postemergence): 80
- Plant response rating (0 to 100), Pigweed (pigweed [1]; 250 g ai/ha, postemergence): 90
- Plant response rating, Pigweed (pigweed [1]; [14]): 45
- Plant response rating, Pigweed (pigweed [1]; Postemergence, 62 g ai/ha): 70
- Plant response rating (0 to 100), Kochia (kochia; 125 g ai/ha, postemergence): 90
- Plant response rating (0 to 100), Kochia (kochia; 250 g ai/ha, postemergence): 90
- Plant response rating, Kochia (kochia; [8]): 80
- Plant response rating, Kochia (kochia; [9]): 85
- Plant response rating (0 to 100), Blackgrass (blackgrass; 125 g ai/ha, postemergence): 5
- Plant response rating (0 to 100), Blackgrass (blackgrass; 250 g ai/ha, postemergence): 25
- Plant response rating, Blackgrass (blackgrass; [8]): 0
- Plant response rating, Blackgrass (blackgrass; [9]): 0
- Plant response rating (0 to 100), Ryegrass, Italian (Italian ryegrass; 125 g ai/ha, postemergence): 0
- Plant response rating (0 to 100), Ryegrass, Italian (Italian ryegrass; 250 g ai/ha, postemergence): 5
- Plant response rating, Ryegrass, Italian (Italian ryegrass; [14]): 0
- Plant response rating, Ryegrass, Italian (Italian ryegrass; Postemergence, 62 g ai/ha): 0
- Plant response rating, Morningglory (morningglory; [16]): 90
- Plant response rating, Morningglory (morningglory; [17]): 100
- Plant response rating, Ducksalad (Heteranthera limosa): 70
- Pigweed plant response rating (pigweed [2]; [11]): 100
- Pigweed plant response rating (pigweed [2]; [12]): 100
- Pigweed plant response rating (pigweed [2]; [19]): 100
- Plant response rating, Pigweed (pigweed [2]): 100
- Plant response rating (0 to 100), Lambsquarters (lambsquarters [3]; 125 g ai/ha, postemergence): 70
- Plant response rating (0 to 100), Lambsquarters (lambsquarters [3]; 250 g ai/ha, postemergence): 80
- Plant response rating, Lambsquarters (lambsquarters [3]; [14]): 25
- Plant response rating, Lambsquarters (lambsquarters [3]; Postemergence, 62 g ai/ha): 55
- Plant response rating, Rice (rice): 0
- Plant response rating, Corn (corn; [16]): 20
- Corn plant response rating (corn; [18]): 70
- Lambsquarters plant response rating (lambsquarters [4]; [11]): 98
- Lambsquarters plant response rating (lambsquarters [4]; [12]): 98
- Lambsquarters plant response rating (lambsquarters [4]; [19]): 98
- Plant response rating, Lambsquarters (lambsquarters [4]): 60
